“Also recorded” adds a separate entry of the source.
Tests used:
HEKn cells [1] = assay: Metabolites during permeation across HEKn cell monolayer by LC-MS/MS; assay type: in vitro ADME, human; conditions: positive scan mode
Procedure: Human epidermal keratinocyte (neonatal) (HEKn) (InvitrogenTM, Cat# C-001-5C Lot#1654391, Oregon, USA) cells were grown in T-25 flask at 37 °C in an atmosphere of 5% CO2. The adherent keratinocytes were cultured in low calcium (0.09 mM), serum-free, Epilife® medium, and supplement with Human Keratinocyte Growth Supplement (HKGS) at 1% v/v concentration. When a 500 ml of Epilife® medium was supplemented with HKGS the final concentration of the components in the supplement medium were: bovine pituitary extract (BPE) 0.2% v/v, bovine insulin 5 μg/ml, hydrocortisone 0.18 μg/ml, bovine transferrin 5 μg/ml and human epidermal growth factor 0.2 ng/ml. The medium was replaced regularly three times a week until the flask reaches 90% confluence (Fig. 2). The cells were moved from the flasks by incubating the monolayers with 0.5% trypsin for 2–3 min at 37 °C. The cells were collected into centrifuge tubes, and then centrifuged at 1000 rpm for 4 min and the pellets were resuspended in Epilife® medium. Cells used for this study were in third and fourth passage in late sub confluency.
HEKns cells were seeded at a density of 1 × 10^5 cells/cm^2 on permeable supports (Transwell® Costar, 0.4 μm pore size) as shown in Fig. 3. […] The integrity of the HEKns cell monolayer in the transwell plates was determined by measuring Trans Epithelial Electrical Resistance (TEER). […]

HEKn cells [2] = tested on: HEKn cells; set-up: method as in PMID 32615127; conditions: gartanin 9 μM, compound alone; previous experiments ref 16; cited from earlier work
HEKn cells [3] = assay: Papp, A-B from the previous permeation experiments; assay type: in vitro ADME, human; conditions: experimental Papp, A-B versus S+MDCK predicted Papp; previous experiments ref 16
CYP1A2 = tested on: CYP1A2; set-up: method as in Foti et al. [20]; conditions: ref Foti et al. [20]; cited from earlier work
CYP2C family of enzymes = tested on: CYP2C family of enzymes; set-up: method as in Foti et al. [20]; conditions: ref Foti et al. [20]; cited from earlier work

| Structure (SMILES) | Metabolism identified by LC-MS/MS (HEKn cells [1]) | Papp, A-B (HEKn cells [2]) | Papp, A-B from experiments lower than predicted Papp (HEKn cells [3]) | Metabolizing CYP isoform (CYP1A2) | Inhibition of CYP (CYP2C family of enzymes) |
| --- | --- | --- | --- | --- | --- |
| CC(C)=CCc1c(O)c(CC=C(C)C)c2oc3c(O)ccc(O)c3c(=O)c2c1O [Gartanin] | might be conjugated to sulfated derivatives; also recorded: not found to be metabolized in phase I metabolism | could not be detected | – | – | – |
| COc1c(O)cc2oc3cc(O)c(CC=C(C)C)c(O)c3c(=O)c2c1CC=C(C)C [α-mangostin] | might be metabolized via tri-oxidation process | – | 3 fold | metabolized primarily by CYP1A2 | potent inhibited |
